Tests used:
rabbit = details: Prenatal developmental toxicity study, new zealand white, Oral, Gavage/Intubation, dose end: 19 GD
dog [1] = details: Sub-acute repeat dose toxicity, beagle, Oral, Gavage/Intubation, dose end: 4 week, group: systemic
rat [2] = details: Prenatal developmental toxicity study, sprague dawley, Oral, Gavage/Intubation, dose end: 17 GD
rat [3] = details: Prenatal developmental toxicity study, sprague dawley, Oral, Gavage/Intubation, dose end: 17 GD; remark: listed apart in the source
rat [4] = details: Sub-acute repeat dose toxicity, sprague dawley, Oral, Gavage/Intubation, dose end: 28 day, group: systemic
mouse [5] = details: Carcinogenicity; b6c3f1; Oral; Feed; dose end: 78 week; group: systemic; systemic / in life observation / body weight / body weight + systemic / pathology microscopic / liver / carcinoma
rat [6] = details: Carcinogenicity; other; Oral; Feed; dose end: 78 week; group: systemic; systemic / pathology microscopic / thyroid gland / adenoma + systemic / in life observation / clinical signs / abdominogenital staining + …
dog [7] = details: Chronic toxicity, beagle, Oral, Feed, dose end: 12 month, group: systemic
mouse [8] = details: Combined chronic toxicity/carcinogenicity, other, Oral, Feed, dose end: 24 month, group: systemic
rat [9] = details: Multigenerational reproductive toxicity study, sprague dawley, Oral, Water, dose end: 3 generation
rat [10] = details: Multigenerational reproductive toxicity study, Sprague Dawley, Oral, Gavage/Intubation, dose end: 2 generation
[11] = group: developmental, systemic / in life observation / body weight / fetal weight
[12] = group: maternal, reproductive / reproductive performance / postimplantation loss / postimplantation loss + reproductive / reproductive performance / …
[13] = systemic / clinical chemistry / chloride / chloride + systemic / hematology / eosinophils / eosinophils + systemic / hematology / …
[14] = systemic / in life observation / body weight / body weight + systemic / in life observation / clinical signs / defecation (diarrhea) + …
[15] = group: maternal, systemic / in life observation / body weight / body weight gain + systemic / in life observation / food consumption / food consumption + …
[16] = group: developmental, developmental / developmental malformation / brain / dilated cerebral ventricle
[17] = group: developmental, developmental / developmental malformation / brain / dilated cerebral ventricle + developmental / developmental malformation / bone / …
[18] = group: maternal, reproductive / reproductive performance / postimplantation loss / postimplantation loss + systemic / in life observation / body weight / …
[19] = systemic / clinical chemistry / alanine aminotransferase (alt/sgpt) / alanine aminotransferase (alt/sgpt) + systemic / clinical chemistry / …
[20] = systemic / hematology / platelet / platelet + systemic / in life observation / clinical signs / hunched posture + systemic / pathology …
[21] = systemic / in life observation / clinical signs / feces, discoloration
[22] = group: offspring, systemic / pathology microscopic / liver / nuclear alteration
[23] = group: parental, systemic / pathology microscopic / liver / apoptosis
[24] = group: offspring, developmental / developmental landmark / vaginal opening / vaginal opening + systemic / clinical chemistry / luteinizing hormone (lh) / …
[25] = group: offspring, systemic / in life observation / clinical signs / swimming time trial
[26] = group: parental, systemic / in life observation / clinical signs / salivation + systemic / organ weight / ovary / absolute + systemic / organ weight / ovary…
[27] = group: reproductive, reproductive / offspring survival early / birth index / live birth index + reproductive / reproductive performance / implantations / …

N#C[C@@H]1CC(F)(F)CN1C(=O)CNC1CC2CCC(C1)N2c1ncccn1 (stereo partly drawn)
LEL (rabbit; [11]): 500 mg/kg/day | LOAEL (rabbit; [11]): > 1500 mg/kg/day | NEL (rabbit; [11]): < 500 mg/kg/day | NOAEL (rabbit; [11]): ≥ 1500 mg/kg/day | LEL (rabbit; [12]): 500 mg/kg/day | LOAEL (rabbit; [12]): > 1500 mg/kg/day | NEL (rabbit; [12]): < 500 mg/kg/day | NOAEL (rabbit; [12]): ≥ 1500 mg/kg/day | LOAEL (dog [1]; [13]): > 30 mg/kg/day | NOAEL (dog [1]; [13]): ≥ 30 mg/kg/day | LEL (dog [1]; [14]): 3 mg/kg/day | NEL (dog [1]; [14]): < 3 mg/kg/day | LEL (rat [2]; [11]): 100 mg/kg/day | LOAEL (rat [2]; [11]): 100 mg/kg/day | NEL (rat [2]; [11]): < 100 mg/kg/day | NOAEL (rat [2]; [11]): < 100 mg/kg/day | LEL (rat [2]; [15]): 200 mg/kg/day | LOAEL (rat [2]; [15]): 200 mg/kg/day | NEL (rat [2]; [15]): 100 mg/kg/day | NOAEL (rat [2]; [15]): 100 mg/kg/day | LEL (rat [3]; [16]): 100 mg/kg/day | LOAEL (rat [3]; [16]): 100 mg/kg/day | NEL (rat [3]; [17]): 50 mg/kg/day | NOAEL (rat [3]; [17]): 50 mg/kg/day | LOAEL (rat [3]; [18]): 150 mg/kg/day | NEL (rat [3]; [18]): 50 mg/kg/day | NOAEL (rat [3]; [18]): 100 mg/kg/day | LEL (rat [3]; group: maternal, systemic / in life observation / body weight / body weight gain): 100 mg/kg/day | LOAEL (rat [4]; [19]): > 450 mg/kg/day | NOAEL (rat [4]; [19]): ≥ 450 mg/kg/day | LEL (rat [4]; [20]): 50 mg/kg/day | NEL (rat [4]; [20]): < 50 mg/kg/day

Clc1ccc(C(c2ccc(Cl)cc2)C(Cl)Cl)cc1 [p,p'-DDD]
LEL (mouse [5]): 61.6 mg/kg/day | LOAEL (mouse [5]): > 123 mg/kg/day | NEL (mouse [5]): < 61.6 mg/kg/day | NOAEL (mouse [5]): ≥ 123 mg/kg/day | LEL (rat [6]): 42.5 mg/kg/day | LOAEL (rat [6]): > 85 mg/kg/day | NEL (rat [6]): < 42.5 mg/kg/day | NOAEL (rat [6]): ≥ 85 mg/kg/day

CC1(C)C(=O)N(Cl)C(=O)N1Br [Bromo-3-chloro-5,5-dimethylhydantoin]
LEL (dog [7]; [21]): 120 mg/kg/day | NEL (dog [7]; [21]): < 120 mg/kg/day | LOAEL (dog [7]; systemic / pathology microscopic / adrenal gland / hypertrophy): 1510 mg/kg/day | NOAEL (dog [7]; systemic / pathology microscopic / adrenal gland / hypertrophy + systemic / in life observation / clinical signs / feces, discoloration + …): 342 mg/kg/day

CC(CCl)OC(C)CCl (stereo not drawn) [Bis(2-chloro-1-methylethyl) ether]
LOAEL (mouse [8]; [19]): > 927 mg/kg/day | NEL (mouse [8]; [19]): 8.41 mg/kg/day | NOAEL (mouse [8]; [19]): ≥ 927 mg/kg/day | LEL (mouse [8]; systemic / hematology / leukocyte (wbc) count differential / leukocyte (wbc)): 40.1 mg/kg/day

CCCCCCCCCc1ccccc1O [Nonylphenol (mixed)]
LEL (rat [9]; [22]): 1.25 mg/kg/day | LOAEL (rat [9]; [22]): > 1.25 mg/kg/day | NEL (rat [9]; [22]): < 1.25 mg/kg/day | NOAEL (rat [9]; [22]): ≥ 1.25 mg/kg/day | LEL (rat [9]; [23]): 1.25 mg/kg/day | LOAEL (rat [9]; [23]): > 1.25 mg/kg/day | NEL (rat [9]; [23]): < 1.25 mg/kg/day | NOAEL (rat [9]; [23]): ≥ 1.25 mg/kg/day | LOAEL (rat [10]; [24]): > 50 mg/kg/day | NOAEL (rat [10]; [24]): ≥ 50 mg/kg/day | LEL (rat [10]; [25]): 2 mg/kg/day | NEL (rat [10]; [25]): < 2 mg/kg/day | LEL (rat [10]; [26]): 50 mg/kg/day | LOAEL (rat [10]; [26]): > 50 mg/kg/day | NEL (rat [10]; [26]): 10 mg/kg/day | NOAEL (rat [10]; [26]): ≥ 50 mg/kg/day | LEL (rat [10]; [27]): 50 mg/kg/day | LOAEL (rat [10]; [27]): > 50 mg/kg/day | NEL (rat [10]; [27]): 10 mg/kg/day | NOAEL (rat [10]; [27]): ≥ 50 mg/kg/day
